Laboratory results: US20190106460A1, “BINDING INHIBITORS OF THE BETA. TRANSDUCIN REPEAT-CONTAINING PROTEIN” (priority 2011, published 2019)
Starred links: 1 amine or outer side, 2 acyl side, 3 side chain; linkers in the order of their positions; H or OH if unused. Non-standard residues stand in square brackets, D forms with d. Residues, ends and D or L forms follow the SMILES beside them. No end group written: not given here. *: point of attachment. Phe(4-NO2) = N[C@@H](Cc1ccc([N+](=O)[O-])cc1)C(=O)O; Benzoyl(2-COOH) = O=C(O)c1ccccc1C(=O)*; Phe(3-F) = N[C@@H](Cc1cccc(F)c1)C(=O)O; Phe(4-F) = N[C@@H](Cc1ccc(F)cc1)C(=O)O; 1Nal = N[C@@H](Cc1cccc2ccccc12)C(=O)O; 3Pal = N[C@@H](Cc1cccnc1)C(=O)O; pS = N[C@@H](COP(=O)(O)O)C(=O)O; X4 = O=S(=O)(c1ccc(Cl)cc1Cl)*; Suc = O=C(CCC(=O)[*:2])[*:1]; X6 = O=C(O)C1CCC(C(=O)*)CC1

Molecular target: βTrCP (Homo sapiens, UniProt Q9Y297)
Assay: Fluorescence polarisation (FP) binding assay with fluorescein-tagged IκB peptide
Details: FP dose-response

Sequence of βTrCP (Q9Y297 whole entry): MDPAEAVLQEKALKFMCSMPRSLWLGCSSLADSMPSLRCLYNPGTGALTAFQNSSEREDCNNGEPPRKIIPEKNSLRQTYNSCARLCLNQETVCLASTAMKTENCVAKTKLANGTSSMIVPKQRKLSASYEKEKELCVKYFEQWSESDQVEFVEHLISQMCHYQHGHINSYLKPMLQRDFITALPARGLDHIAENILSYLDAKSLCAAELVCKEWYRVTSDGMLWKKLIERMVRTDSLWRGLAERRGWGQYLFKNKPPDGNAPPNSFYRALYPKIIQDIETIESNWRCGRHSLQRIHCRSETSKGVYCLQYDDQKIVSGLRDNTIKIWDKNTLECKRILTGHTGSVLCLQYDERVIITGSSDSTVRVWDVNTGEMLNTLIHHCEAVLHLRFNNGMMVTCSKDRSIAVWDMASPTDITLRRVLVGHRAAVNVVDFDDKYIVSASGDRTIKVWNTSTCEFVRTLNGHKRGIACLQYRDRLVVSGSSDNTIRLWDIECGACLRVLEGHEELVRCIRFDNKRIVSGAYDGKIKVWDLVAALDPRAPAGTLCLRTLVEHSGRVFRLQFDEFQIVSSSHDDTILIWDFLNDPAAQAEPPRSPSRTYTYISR
Sequence of βTrCP (P63208 whole entry partner): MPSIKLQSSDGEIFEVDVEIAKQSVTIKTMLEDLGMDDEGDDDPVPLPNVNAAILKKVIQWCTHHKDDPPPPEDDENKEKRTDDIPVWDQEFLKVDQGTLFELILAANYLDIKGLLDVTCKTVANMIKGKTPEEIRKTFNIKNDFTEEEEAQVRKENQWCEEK

Row | Molecule | Ki [nM]
1 | NC(=O)[C@H](CCC(=O)O)NC(=O)[C@H](Cc1c[nH]c2ccccc12)NC(=O)[C@H](Cc1cccc(F)c1)NC(=O)CNC(=O)[C@H](CCC(=O)O)NC(=O)[C@@H](CC(=O)O)NS(=O)(=O)c1ccc(Cl)cc1Cl [UBP048, 2,4-(Cl)2-PhSO2-dEGF(3F)WE-NH2] (X4-[dD]EG[Phe(3-F)]WE-NH2) | 27

Same assay, conditions: Tables 1, 3, 7, 8; 10 nM fluorescein-tagged IκB peptide; read-out: FP Assay IC50/μM

Row | Molecule | IC50 [µM]
2 | NC(=O)CC[C@H](NC(=O)CCC(=O)O)C(=O)NCC(=O)N[C@@H](Cc1ccccc1)C(=O)N[C@@H](Cc1ccccc1)C(=O)N[C@@H](CCC(=O)O)C(N)=O [Suc-QGFFE-NH2] | 10
3 | CC[C@H](C)[C@H](NC(=O)CNC(=O)[C@H](CCC(=O)O)NC(=O)CCC(=O)O)C(=O)N[C@@H](Cc1cccc2ccccc12)C(=O)N[C@@H](CCC(=O)O)C(N)=O [Suc-EGI-1Nal-E-NH2] (Suc-EGI[1Nal]E-NH2) | 15.1
4 | NC(=O)[C@H](Cc1cccnc1)NC(=O)[C@H](Cc1cccc(F)c1)NC(=O)CNC(=O)[C@H](CCC(=O)O)NC(=O)CCC(=O)O [Suc-EG-F(3F)-3Pal-NH2] (Suc-EG[Phe(3-F)][3Pal]-NH2) | 70
5 | NC(=O)[C@H](CCC(=O)O)NC(=O)[C@H](Cc1ccc([N+](=O)[O-])cc1)NC(=O)[C@H](Cc1ccc(O)cc1)NC(=O)CNC(=O)[C@@H](N)CCC(=O)O [EGY-F(4NO2)-E-NH2] (H-EGY[Phe(4-NO2)]E-NH2) | > 100
6 | CC[C@H](C)[C@H](NC(=O)CNC(=O)[C@H](C)NC(=O)c1ccccc1C(=O)O)C(=O)N[C@@H](Cc1ccccc1)C(=O)N[C@@H](CCC(=O)O)C(N)=O [Phth-AGIFE-NH2] ({Benzoyl(2-COOH)}-AGIFE-NH2) | > 100
7 | NC(=O)[C@H](CCC(=O)O)NC(=O)[C@H](Cc1ccccc1)NC(=O)[C@H](Cc1ccccc1)NC(=O)CNC(=O)[C@H](CCC(=O)O)NC(=O)C1CCC(C(=O)O)CC1 (some centres unmarked) [1,4-Chda-EGFFE-NH2] (X6-EGFFE-NH2) | > 100
8 | C[C@H](N)C(=O)NCC(=O)N[C@@H](Cc1cccc(F)c1)C(=O)N[C@@H](Cc1ccc([N+](=O)[O-])cc1)C(=O)N[C@@H](CCC(=O)O)C(N)=O [AG-F(3F)-F(4NO2)-E-NH2] (H-AG[Phe(3-F)][Phe(4-NO2)]E-NH2) | > 100
9 | NC(=O)CC[C@H](NC(=O)[C@H](Cc1cccc2ccccc12)NC(=O)[C@H](Cc1cccc(F)c1)NC(=O)CNC(=O)[C@H](CCC(=O)O)NC(=O)CCC(=O)O)C(N)=O [Suc-EG-F(3F)-1Nal-Q-NH2] (Suc-EG[Phe(3-F)][1Nal]Q-NH2) | 7.22
10 | ADAGIHS-NH2 [ADAGIHS-NH2] | > 100
11 | NC(=O)[C@H](Cc1cccc(F)c1)NC(=O)[C@H](Cc1ccc(O)cc1)NC(=O)CNC(=O)[C@H](CCC(=O)O)NC(=O)CCC(=O)O [Suc-EGY-F(3F)-NH2] (Suc-EGY[Phe(3-F)]-NH2) | 91
12 | CC[C@H](C)[C@H](NC(=O)CNC(=O)[C@H](CCC(=O)O)NC(=O)c1ccccc1C(=O)O)C(=O)N[C@@H](Cc1ccccc1)C(=O)N[C@@H](CCC(=O)O)C(N)=O [Phth-EGIFE-NH2] ({Benzoyl(2-COOH)}-EGIFE-NH2) | > 100
13 | NC(=O)[C@H](Cc1ccc(F)cc1)NC(=O)[C@H](Cc1ccccc1)NC(=O)CNC(=O)[C@H](CCC(=O)O)NC(=O)CCC(=O)O [Suc-EGF-F(4F)-NH2] (Suc-EGF[Phe(4-F)]-NH2) | > 100
14 | NC(=O)[C@H](CCC(=O)O)NC(=O)[C@H](Cc1cccc2ccccc12)NC(=O)[C@H](Cc1cccnc1)NC(=O)CNC(=O)[C@H](CCC(=O)O)NC(=O)CCC(=O)O [Suc-EG-3Pal-1Nal-E-NH2] (Suc-EG[3Pal][1Nal]E-NH2) | 3.63
15 | VDAGIHS-NH2 [VDAGIHS-NH2] | > 100
16 | CC[C@H](C)[C@H](NC(=O)CNC(=O)[C@H](COP(=O)(O)O)NC(=O)[C@H](CC(=O)O)NC(=O)[C@H](C)N)C(=O)N[C@@H](Cc1c[nH]cn1)C(=O)N[C@@H](CO)C(N)=O [AD-pS-GIHS-NH2] (H-AD[pS]GIHS-NH2) | > 100
17 | CC[C@H](C)[C@H](NC(=O)CNC(=O)[C@H](C)NC(=O)[C@H](N)CC(=O)O)C(=O)N[C@@H](Cc1ccccc1)C(=O)N[C@@H](CCCNC(=N)N)C(N)=O [dAGIFR-NH2] (H-[dD]AGIFR-NH2) | > 100

Row | Molecule | IC50 [µM]
18 | CC[C@H](C)[C@H](NC(=O)CNC(=O)[C@H](COP(=O)(O)O)NC(=O)[C@@H](N)CC(=O)O)C(=O)N[C@@H](Cc1ccccc1)C(=O)N[C@@H](Cc1c[nH]cn1)C(N)=O [D-pS-GIFH-NH2] (H-D[pS]GIFH-NH2) | > 100
19 | DAGIFH-NH2 [DAGIFH-NH2] | > 100
20 | CC[C@H](C)[C@H](NC(=O)CNC(=O)[C@H](CC(N)=O)NC(=O)[C@H](N)CC(=O)O)C(=O)N[C@@H](Cc1ccccc1)C(=O)N[C@@H](CCCNC(=N)N)C(N)=O [dNGIFR-NH2] (H-[dD]NGIFR-NH2) | > 100
21 | NC(=O)[C@H](CCC(=O)O)NC(=O)[C@H](Cc1cccc2ccccc12)NC(=O)[C@H](Cc1ccc(O)cc1)NC(=O)CNC(=O)[C@@H](N)CCC(=O)O [EGY-1Nal-E-NH2] (H-EGY[1Nal]E-NH2) | > 100
22 | CC[C@H](C)[C@H](NC(=O)CNC(=O)[C@H](C)NC(=O)CCC(=O)O)C(=O)N[C@@H](Cc1ccccc1)C(=O)N[C@@H](CCC(=O)O)C(N)=O [Suc-AGIFE-NH2] (Suc-AGIFE-NH2) | > 100
23 | C[C@H](NC(=O)[C@@H](N)CCC(=O)O)C(=O)N[C@@H](Cc1cccc(F)c1)C(=O)N[C@@H](Cc1ccc([N+](=O)[O-])cc1)C(=O)N[C@@H](CCC(=O)O)C(N)=O [EA-F(3F)-F(4NO2)-E-NH2] | > 100
24 | C[C@H](NC(=O)c1ccccc1C(=O)O)C(=O)NCC(=O)N[C@@H](Cc1ccccc1)C(=O)N[C@@H](Cc1ccccc1)C(=O)N[C@@H](CCC(=O)O)C(N)=O [Phth-AGFFE-NH2] ({Benzoyl(2-COOH)}-AGFFE-NH2) | > 100
25 | CC[C@H](C)[C@H](NC(=O)CNC(=O)[C@H](COP(=O)(O)O)NC(=O)[C@@H](N)CC(=O)O)C(=O)N[C@@H](Cc1c[nH]cn1)C(=O)N[C@@H](CO)C(N)=O [D-pS-GIHS-NH2] (H-D[pS]GIHS-NH2) | > 100
26 | C[C@H](NC(=O)[C@H](CCC(=O)O)NC(=O)CCC(=O)O)C(=O)N[C@@H](Cc1ccccc1)C(=O)N[C@@H](Cc1ccccc1)C(=O)N[C@@H](CCC(=O)O)C(N)=O [Suc-EAFFE-NH2] | 59.8
27 | COC(=O)CC[C@H](NC(=O)[C@H](Cc1ccc(OC)cc1)NC(=O)[C@H](Cc1ccccc1)NC(=O)CNC(=O)[C@H](CCC(=O)O)NC(=O)CCC(=O)O)C(N)=O [Suc-EGF-Y(Me)-E(OMe)-NH2] (Suc-EGFY(Me)E(OMe)-NH2) | 71
28 | COc1ccc(C[C@H](NC(=O)[C@H](Cc2cccc(F)c2)NC(=O)CNC(=O)[C@H](CCC(=O)O)NC(=O)CCC(=O)O)C(=O)N[C@@H](CCC(=O)O)C(N)=O)cc1 [Suc-EG-F(3F)-Y(Me)-E-NH2] (Suc-EG[Phe(3-F)]Y(Me)E-NH2) | 1.4
29 | GDAGIHS-NH2 [GDAGIHS-NH2] | > 100
30 | NC(=O)CC[C@H](N)C(=O)NCC(=O)N[C@@H](Cc1cccc(F)c1)C(=O)N[C@@H](Cc1ccc([N+](=O)[O-])cc1)C(=O)N[C@@H](CCC(=O)O)C(N)=O [QG-F(3F)-F(4NO2)-E-NH2] | > 100
31 | C[C@H](NC(=O)[C@H](CCC(=O)O)NC(=O)CCC(=O)O)C(=O)N[C@@H](Cc1ccc(O)cc1)C(=O)N[C@@H](Cc1ccccc1)C(=O)N[C@@H](CCC(=O)O)C(N)=O [Suc-EAYFE-NH2] | 82.1
32 | NC(=O)[C@H](Cc1cccc2ccccc12)NC(=O)[C@H](Cc1ccc([N+](=O)[O-])cc1)NC(=O)CNC(=O)[C@H](CCC(=O)O)NC(=O)CCC(=O)O [Suc-EG-F(4NO2)-1Nal-NH2] (Suc-EG[Phe(4-NO2)][1Nal]-NH2) | 14
